# Reference: article PMC10175918 (Communications Biology, 2023)
# Values joined by “and” are separate entries in the source; they are usually repeats but may differ in a detail not shown here. Identical values can stand only once.
# Key:
# [1] = design: method as in earlier work; settings: intravenous injection, healthy adults; cited from earlier work
# [2] = target: T1, UTS2R (β-arrestin 1 recruitment) (Homo sapiens, UniProt Q9UKP6); test: NanoBiT β-arrestin 1 recruitment assay for UTS2R; format: cell-based; settings: β-arrestin 1, Fig. 1c
# T1 construct: expressed in transfected cells; host or cells: HEK293A
# T1 sequence (Q9UKP6 whole entry): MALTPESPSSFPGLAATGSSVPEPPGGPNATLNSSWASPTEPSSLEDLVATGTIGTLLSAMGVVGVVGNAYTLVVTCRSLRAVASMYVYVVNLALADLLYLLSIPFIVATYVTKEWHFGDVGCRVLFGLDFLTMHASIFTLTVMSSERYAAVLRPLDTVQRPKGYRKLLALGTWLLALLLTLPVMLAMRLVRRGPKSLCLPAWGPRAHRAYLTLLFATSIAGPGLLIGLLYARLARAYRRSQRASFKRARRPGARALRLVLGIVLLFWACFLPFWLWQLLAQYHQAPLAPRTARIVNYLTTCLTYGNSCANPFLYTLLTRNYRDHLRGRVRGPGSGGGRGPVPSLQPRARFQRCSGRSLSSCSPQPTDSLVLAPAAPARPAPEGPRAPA
# [3] = test system: UTS2R G68C; test: TGFα-shedding assay on UTS2R SNV mutant G68C; format: cell-based, human; settings: cutoff value set to −1, single replicates
# [4] = target: T2, FLAG-UTS2R (Homo sapiens, UniProt Q9UKP6); test: Competitive binding assay: biotin-UT2 pulldown of FLAG-UTS2R from HEK293 membrane fraction; settings: membrane fraction of HEK293 cells expressing FLAG-UTS2R, streptavidin beads, western blot
# T2 construct: expressed in transfected cells; host or cells: HEK293
# T2 sequence (Q9UKP6 whole entry): as above
# Protocol: HEK293 cells were transfected with the plasmid encoding FLAG-UTS2R and were serum-starved for 6 h before experimentation. Cells were washed twice with ice-cold PBS. Hypotonic solution (50 mM HEPES, pH 7.5 with protease inhibitor cocktails) was added to the cell plate, and the cells were harvested by scraping. Cells were homogenized using a dounce homogenizer (IKA EUROSTAR 20 digital) at 2,000 rpm for 20 strokes at 4 °C, and further homogenized using a tissue rupture (Qiagen) for 5 s at 4 °C. The homogenate was centrifuged at 800 x g for 10 min at 4 °C to remove unbroken cells and the nucleus. The supernatant was further centrifuged at 30,000×g for 30 min at 4° (CP80NX, himac). The resulting pellet was used as crude membrane fraction and was suspended in hyperosmotic solution (50 mM HEPES, pH 7.5, 250 mM NaCl, 2 mM EDTA with protease inhibitor).
# The biotin-UT2-bound UTS2R complex was solubilized using a hyperosmotic buffer containing detergent (N-Dodecyl-β-D-maltopyranoside; DDM, 5× CMC) and pulled down using streptavidin magnetic beads. The suitable beads for the experiment were selected from 5 types (Supplementary Fig. 1d, Dynabeads Streptavidin Trial Kit, Thermo Fisher, and Streptavidin magnetic beads, NEB) and denatured with SDS buffer. […]
# [5] = test system: hiPS-CMs; test: Perforated patch-clamp, spontaneous action potentials (APD90) of hiPS-CMs; format: cell-based, human; settings: 10 µM remdesivir, 72 h
# [6] = test system: UTS2R T304V; test: TGFα-shedding assay on UTS2R mutant T304V; format: cell-based, human; settings: cutoff value set to −1, single replicates
# [7] = target: T3, UTS2R D130N (Homo sapiens, UniProt Q9UKP6, D130N); test: TGFα-shedding assay on UTS2R mutant D130N; format: cell-based
# T3 construct: expressed in transfected cells; host or cells: HEK293A
# T3 sequence (Q9UKP6 whole entry D130N): as the sequence (Q9UKP6 whole entry) above, with D130N counted along it
# [8] = test system: UTS2R T304A; test: TGFα-shedding assay on UTS2R mutant T304A; format: cell-based, human; settings: cutoff value set to −1, single replicates
# [9] = test system: UTS2R M134A; test: TGFα-shedding assay on UTS2R mutant M134A; format: cell-based, human; settings: cutoff value set to −1, single replicates
# [10] = test system: UTS2R A249G; test: TGFα-shedding assay on UTS2R SNV mutant A249G; format: cell-based, human; settings: cutoff value set to −1, single replicates
# [11] = test system: adult mouse cardiomyocytes; test: Contractility under pacing of adult mouse cardiomyocytes; format: cell-based; settings: 10 µM remdesivir, 30 min
# Protocol: C57BL/6J mice for the isolation of adult mouse cardiomyocytes were purchased from Japan SLC Inc. (Shizuoka, Japan). Isolation of adult mouse ventricular cardiomyocytes was performed. Male mice were anesthetized by inhalation with isoflurane. The heart was quickly excised, and the aorta was clamped with a small vascular clamp. The heart was antegradely perfused with isolation buffer (less than 3 mL) containing 130 mM NaCl, 5.4 mM KCl, 0.5 mM MgCl2, 0.33 mM NaH2PO4, 25 mM HEPES, 22 mM glucose, and 50 μU/mL bovine insulin (Sigma) (pH 7.4, adjusted with NaOH) supplemented with 0.4 mM EGTA, followed by the perfusion of enzyme solution (10 mL) (isolation buffer containing 1 mg/mL collagenase type 2 (Worthington), 0.06 mg/mL trypsin (Sigma), 0.06 mg/mL protease (Sigma), and 0.3 mM CaCl2). Thereafter, the LV chamber was removed and cut into small pieces in an enzyme solution containing 0.2% bovine serum albumin (BSA) and 0.7 mM CaCl2. The tissue-cell suspension was filtered through a cell strainer (100 μm, Falcon) and centrifuged for 3 min at 50×g. After removing the supernatant, the cell pellet was resuspended in isolation buffer supplemented with 0.2% BSA and 1.2 mM CaCl2 and incubated for 7 min at 37 °C. […]
# Microscopic images of cardiomyocytes were recorded for 13 seconds under pacing conditions. […] Imaging data were analyzed using Fiji software.
compound,measurement,setting,value
CCC(CC)COC(=O)[C@H](C)N[P@](=O)(OC[C@H]1O[C@@](C#N)(c2ccc3c(N)ncnn23)[C@H](O)[C@@H]1O)Oc1ccccc1 [remdesivir],maximum plasma concentration,[1],9.03 µM
same,β-arrestin recruitment response,[2],failed to induce a β-arrestin recruitment response
same,⊿pEC50 compared to WT UTS2R,[3],> 0.3 and 0.5256 and 0.7054 and 0.6735 and 0.5172
same,biotin–UT2-mediated UTS2R pulldown,[4],significantly impaired
same,APD90 (action potential duration at 90% repolarization),[5],significantly prolonged
same,⊿pEC50 compared to WT UTS2R,[6],-1
same,receptor activation of D130N mutant,"[7]; D130N mutation vs WT, TGFα-shedding",significantly upregulated
same,⊿pEC50 compared to WT UTS2R,"[7]; D130N, cutoff value set to −1, single replicates",0.5051 and 0.5402 and 0.5471 and 0.5928 and 0.4845
same,⊿pEC50 compared to WT UTS2R,[8],-1
same,⊿pEC50 compared to WT UTS2R,[9],-1
same,⊿pEC50 compared to WT UTS2R,[10],> 0.3 and 0.2782 and 0.2736 and 0.3671 and 0.2913
same,contraction of adult cardiomyocytes,[11],significantly impaired the contraction
